In patent publication US20040235071A1, “Methods and compositions for treating cancer using 15986, 2188, 20743, 9148, 9151, 9791, 44252, 14184, 42461, 8204, 7970, 25552, 21657, 26492, 2411, 15088, 1905, 28899, 63380, 33935, 10480, 12686, 25501, 17694, 15701, 53062, 49908, 21612, 38949, 6216, 46863, 9235, 2201, 6985, 9883, 12238, 18057, …” (Millennium Pharmaceuticals, Inc., priority 2002, published 2004):

Legend:
Format in all cases: cell-based, human
15701 mRNA = assay: TaqMan PI3-kinase panel, 15701 mRNA expression; details: 48 hours
Excerpt: In an expanded breast cancer tissue panel, 15701 mRNA was expressed at increased levels (2-131 fold) in 14/15 primary breast tumor samples when compared to 4/4 normal breast tissue samples. In a breast cancer cell model panel, 15701 mRNA was expressed at a 4-fold increased level in transformed, activated H-ras-expressing MCF10AT01 cells vs. normal MCF10A cells, and at a 5-fold increased level in transformed, activated H-ras-expressing MCF10AT3B cells when compared to normal MCF10A cells. 15701 mRNA was expressed in many breast tumor cell lines, including MCF-7, T47D, ZR-75 and MDA-MB-468. In the PI3-kinase panel, 15701 mRNA expression was decreased in MDA-MB-468, MCF-7 and LNCaP cells after 48 hours treatment with the PI3-kinase inhibitor LY294002. 15701 mRNA expression in MDA-MB-468 cells decreased 7-fold after 48 hours with LY294002 (115 uM). […]
This example describes the TaqMan™ procedure. The Taqman™ procedure is a quantitative, reverse transcription PCR-based approach for detecting mRNA. […]
(§1) During the PCR reaction, cleavage of the probe separates the reporter dye and the quencher dye, resulting in increased fluorescence of the reporter. Accumulation of PCR products is detected directly by monitoring the increase in fluorescence of the reporter dye. When the probe is intact, the proximity of the reporter dye to the quencher dye results in suppression of the reporter fluorescence. […]

39228 mRNA = assay: TaqMan analysis of the Cox inhibitor study, 39228 mRNA expression in HUVEC; details: 40-100 mM, 10 h, relative to a vehicle (DMSO) control
Excerpt: (§2) This example describes the TaqMan™ procedure. The Taqman™ procedure is a quantitative, reverse transcription PCR-based approach for detecting mRNA. The RT-PCR reaction exploits the 5′ nuclease activity of AmpliTaq Gold™ DNA Polymerase to cleave a TaqMan™ probe during PCR. Briefly, cDNA was generated from the samples of interest, e.g., heart, kidney, liver, skeletal muscle, and various vessels, and used as the starting material for PCR amplification. In addition to the 5′ and 3′ gene-specific primers, a gene-specific oligonucleotide probe (complementary to the region being amplified) was included in the reaction (i.e., the Taqman™ probe). […]
as §1

20743 mRNA = assay: Breast cancer cell model panel, 20743 mRNA expression in MCF10A cells
Experimental: On a breast cancer cell model panel, 20743 mRNA expression in MCF10A cells was increased 4-fold by 8 hrs treatment of 10 ng/ml EGF and was increased 3-fold by 3 hrs treatment with 10 nM IGF1.
as §2, §1

2201 = assay: Breast cancer cell model panel, 2201 in MCF10A cells; details: 8 hour treatment, 10 ng/ml
Experimental: In a breast cancer cell model panel, 2201 is increased 3-fold after an 8 hour treatment of MCF10A cells with 10 ng/ml EGF.
as §2, §1

In the case of `O=c1cc(N2CCOCC2)oc2c(-c3ccccc3)cccc12` [LY294002], the “15701 mRNA expression decrease” value (15701 mRNA; MCF-7 cells, 30 uM) is reported as 16 fold and the “15701 mRNA expression decrease” value (15701 mRNA; MDA-MB-468 cells, 115 uM) is reported as 7 fold.
In the case of `CS(=O)(=O)Nc1ccc([N+](=O)[O-])cc1OC1CCCCC1` [NS398], the “39228 mRNA expression” value (39228 mRNA) is reported as “increased”.
In the case of “IGF1: growth factor used to treat MCF10A cells”, the “20743 mRNA expression increase” value (20743 mRNA; 3 hrs treatment, 10 nM) is reported as 3 fold.
For “EGF: epidermal growth factor (NSDSECPLSHDGYCLHDGVCMYIEALDKYACNCVVGYIGERCQYRDLKWWELR; UniProt P01133 971-1023, looked up)”, the 2201 increase 2201 was 3 fold and the “20743 mRNA expression increase” value (20743 mRNA; 8 hrs treatment, 10 ng/ml) was 4 fold.
With `CC1=C(CC(=O)O)c2cc(F)ccc2/C1=C\c1ccc([S+](C)[O-])cc1` (stereo not shown) [Sulindac] the “39228 mRNA expression” value (39228 mRNA) was “increased”.
